Measurements taken from patent publication US5885987A, “Phenylene derivatives” (Kowa Co., Ltd., priority 1996, dated 1999).

Tests used:
[1] = test system: isolated guinea pig ileum (leukotriene D4); test: Anti-LTD4 action (in vitro), inhibition of leukotriene D4-induced contraction of isolated ileum; format: cell-based; conditions: Cavia porcellus; for IC50: isolated guinea pig ileum, leukotriene D4; for inhibition at 10 µM: 0.5 h, 10^-5 M, 30 minutes incubation, 37° C., read-out: Anti-LTD4 action (%), contraction inhibition rate
Description: (§1) Antihistaminic Action and Anti-LTD4 Action (In vitro Tests)
(§2) An isolated guinea pig ileum was cut into about 2 cm lengths. Each ileum piece was suspended in a 20-ml container filled with the Krebs buffer. An isotonic contractive response by histamine or leukotriene D4 was recorded on a recorder. The Krebs buffer was controlled at 37° C., through which a mixed gas (95%O2 -5%CO2) was bubbled. First, histamine or leukotriene D4 was added to an organ bath to measure its dose-response. After the ileum piece was washed several times with the buffer, a test compound (will be identified by its example number; this will apply likewise hereinafter) of a predetermined specific concentration was added. Subsequent to incubation for 30 minutes, the dose-response of histamine or leukotriene D4 was measured again. Incidentally, in Table 7, the values (%) indicate contraction inhibition rate at 10^-5 M, while the values in parentheses show pD'2 values in the case of antihistaminic action and IC50 values in the case of anti-LTD4 action.

[2] = molecular target: T1, H1 receptor (Cavia porcellus, UniProt P31389); test: H1 receptor binding inhibition test ([^3 H]mepyramin, guinea pig cerebromembranous protein); conditions: for inhibition at 10 µM: b: 10 μM; for inhibition at 10 µM / inhibition at 100 µM: read-out: H1 receptor (%), inhibition rate; for inhibition at 100 µM: a: 100 μM; for Kd: read-out: H1 receptor, dissociation constant KD
T1 construct: guinea pig cerebromembranous protein; from tissue; host or cells: guinea pig cerebral (brain) membranes
T1 sequence (P31389 whole entry): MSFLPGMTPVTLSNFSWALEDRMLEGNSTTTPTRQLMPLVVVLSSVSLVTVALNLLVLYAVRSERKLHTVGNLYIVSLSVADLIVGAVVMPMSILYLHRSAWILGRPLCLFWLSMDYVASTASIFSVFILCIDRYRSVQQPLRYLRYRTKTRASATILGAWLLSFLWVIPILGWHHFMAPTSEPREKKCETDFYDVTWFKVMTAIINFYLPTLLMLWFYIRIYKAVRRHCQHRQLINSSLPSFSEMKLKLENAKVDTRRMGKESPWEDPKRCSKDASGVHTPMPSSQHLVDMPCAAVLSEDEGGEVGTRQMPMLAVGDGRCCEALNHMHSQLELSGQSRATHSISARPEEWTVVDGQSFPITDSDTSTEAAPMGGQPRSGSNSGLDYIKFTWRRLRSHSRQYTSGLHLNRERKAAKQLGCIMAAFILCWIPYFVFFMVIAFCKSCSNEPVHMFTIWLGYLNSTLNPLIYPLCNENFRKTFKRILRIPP
Description: 1) H1 Receptor Binding Inhibition Test
An ice-cooled phosphate buffer was added to terminate the reaction, followed by immediate filtration through a Wattman CF/C filter. The filter was washed twice with 20 ml aliquots of the ice-cooled buffer. The radioactivity of the residue was measured by a liquid scintillation counter. From a measurement value obtained without the addition of the test compound and measurements values obtained upon addition of the test compound at various concentrations, the dose-response of the inhibitory action of the test compound was measured and the 50% inhibitory concentration (IC50) was determined. Using the Cheng-Prusoff formula, a dissociation constant was calculated from the IC50. In a binding assay, 10^-4 M R(-)dimethindene was used for the measurement of a nonspecific binding.

[3] = molecular target: T2, LTD4 receptor (Cavia porcellus, UniProt Q2NNR5); test: LTD4 receptor binding inhibition test ([^3 H]leukotriene D4, guinea pig pulmomembranous protein); conditions: for Kd: read-out: LTD4 receptor, dissociation constant KD; for inhibition at 10 µM: b: 10 μM, read-out: LTD4 receptor (%), inhibition rate
T2 construct: guinea pig pulmomembranous protein; from tissue; host or cells: guinea pig lung membranes
T2 sequence (Q2NNR5 1-340): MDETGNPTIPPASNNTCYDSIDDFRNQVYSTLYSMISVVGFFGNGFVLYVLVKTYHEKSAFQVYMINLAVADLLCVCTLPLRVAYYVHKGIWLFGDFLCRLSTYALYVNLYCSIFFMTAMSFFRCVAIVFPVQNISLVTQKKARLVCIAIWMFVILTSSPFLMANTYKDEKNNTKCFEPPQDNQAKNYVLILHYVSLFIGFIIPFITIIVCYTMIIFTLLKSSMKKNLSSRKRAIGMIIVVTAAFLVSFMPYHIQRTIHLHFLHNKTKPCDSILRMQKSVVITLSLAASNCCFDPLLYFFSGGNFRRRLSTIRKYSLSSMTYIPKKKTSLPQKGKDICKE
Method in brief: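 Filtration binding with [3H]LTD4 on guinea pig lung membranes; reaction stopped with ice-cold Tris-HCl/NaCl buffer (10 mM/100 mM, pH 7.5), bound radioactivity by scintillation counting. Nonspecific binding defined with 2 μM leukotriene D4. IC50 from dose-response, converted to dissociation constant by Cheng-Prusoff.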

[4] = molecular target: T3, isolated guinea pig ileum (histamine) (Cavia porcellus, UniProt P31389); test: Antihistaminic action (in vitro), inhibition of histamine-induced contraction of isolated ileum; format: cell-based; conditions: for inhibition at 10 µM: 10^-5 M, 30 minutes incubation, 37° C., read-out: Antihistaminic (%), contraction inhibition rate; for pD'2 (antihistaminic action): isolated guinea pig ileum, histamine, 30 min
T3 construct: An isolated guinea pig ileum was cut into about 2 cm lengths; from tissue; host or cells: isolated guinea pig ileum
T3 sequence (P31389 whole entry): as the sequence (P31389 whole entry) above
Description: as §1, §2

[5] = test system: leukotriene D4; test: Anti-LTD4 action in vivo, Evans Blue transudation in back skin after intracutaneous leukotriene D4; design: species or system male Hartley guinea pig; conditions: Cavia porcellus, po, 1 h; orally 10 mg/kg, one hour before; leukotriene D4 0.5 μg/ml, 0.1 ml intracutaneously; read-out: Anti-LTD4 action (%), inhibition rate
Description: (§3) Antihistaminic Action and Anti-LTD4 Action (In vivo Tests)
(§4) After the hair on the back of a male Hartley guinea pig was cut off, a test compound was orally administered at 10 mg/kg. One hour later, 5% Evans Blue solution was intravenously administered at 1 ml/kg and immediately after that, a 0.3 μg/ml solution of histamine and a 0.5 μg/ml solution of leukotriene D4 were intracutaneously administered each in an amount of 0.1 ml to the back. Thirty minutes later, the guinea pig was sacrificed under exsanguination, the skin was cut off, and the transudated color was quantitated by extraction. To a control, 0.5% CMC (carboxylmethylcellulose) was orally administered and the subsequent procedures were repeated likewise. From the difference in the amount of the transudated color between the control and the group administered with the test compound, an inhibition rate was calculated.

[6] = test system: histamine (H1); test: Antihistaminic (anti-H1) action in vivo, Evans Blue transudation in back skin after intracutaneous histamine; design: species or system male Hartley guinea pig; conditions: orally 10 mg/kg, one hour before; histamine 0.3 μg/ml, 0.1 ml intracutaneously
Description: as §3, §4

[7] = test system: cortical edema; conditions: intravenous administration after occurrence of ischemia; cited from earlier work

SMILES | IC50 [1] [nM] | inhibition at 10 µM [2] [%] | Kd [3] [nM] | inhibition at 10 µM [4] [%] | inhibition in vivo at 10 mg/kg [5] [%] | inhibition at 100 µM [2] [%] | further results
CN(Cc1cccc(OCc2ccc3ccccc3n2)c1)c1ccc2c(c1)SCC(=O)N2C [96(b), 4-methyl-7-[N-methyl-N-(3-(2-quinolinylmethoxy)benzyl)amino]-3,4-dihydro-2H-1,4-benzothiazin-3-one] | 120 | 14 | 315 | 98 | – | – | pD'2 (antihistaminic action) [4]: 6.17
O=C1CCc2cc(OCc3cccc(OCc4ccc5ccccc5n4)c3)ccc2N1 [Example 6] | 460 | 18 | 81.4 | 37 | 12 | – | inhibition at 10 µM [1]: 98%
O=C1CSc2cc(OCc3cccc(OCc4ccc5ccccc5n4)c3)ccc2N1 [Example 10, 7-[3-(2-Quinolinylmethoxy)benzyloxy]-3,4-dihydro-2H-1,4-benzothiazin-3-one] | – | – | 12.5 | – | 32 | 50 | Anti-H1 action (%), inhibition rate [6]: 36%
CC1(C)C(=O)Nc2cc(OCc3cccc(OCc4ccc5ccccc5n4)c3)ccc21 [Example 15] | – | – | – | – | 37 | 36 | Anti-H1 action (%), inhibition rate [6]: 17%; inhibition at 10 µM [3]: 37%
CC1(C)C(=O)Nc2c(OCc3cccc(OCc4ccc5ccccc5n4)c3)cccc21 [Example 17, 3,3-Dimethyl-7-[3-(2-quinolinylmethoxy)benzyloxy]-2,3-dihydro-1H-indol-2-one] | 1500 | – | 202 | 100 | 21 | 40 | Anti-H1 action (%), inhibition rate [6]: 19%; inhibition at 10 µM [1]: 96%; pD'2 (antihistaminic action) [4]: 5.35
CC1(C)C(=O)Nc2c(OCc3ccc(OCc4ccc5ccccc5n4)cc3)cccc21 [Example 30, 3,3-Dimethyl-7-[4-(2-quinolinylmethoxy)benzyloxy]-2,3-dihydro-1H-indol-2-one] | – | – | 200 | – | 44 | 32 | Anti-H1 action (%), inhibition rate [6]: 40%
O=C1CSc2cc(OCc3cccc(OCc4ncc5ccccc5n4)c3)ccc2N1 [Example 33, 7[3-(2-quinazolinylmethoxyl)benzyloxy]-3,4-dihydro-2H-1,4-benzothiazin-3-one] | 130 | – | 9.7 | 65 | 40 | 46 | inhibition at 10 µM [1]: 100%; pD'2 (antihistaminic action) [4]: 5.25
O=C1CCc2ccc(OCc3ccc(OCc4ncc5ccccc5n4)cc3)cc2N1 [Example 35, 7-[4-(2-quinazolinylmethoxy)benzyloxy]-1,2,3,4-tetrahydroquinolin-2-one] | 1700 | – | 209 | 16 | 11 | – | inhibition at 10 µM [1]: 87%; Kd [2]: 87.9 µM
Cc1ccc(OCc2ccc(OCc3nc4ccccc4n3C)cc2)c2c1NC(=O)C2(C)C [Example 39, 4-[4-(N-methylbenzimidazol-2-yl-methoxy)benzyloxy)-3,3,7-trimethyl-2,3-hydro-1H-indol-2-one] | 440 | – | – | 100 | – | – | inhibition at 10 µM [1]: 98%; Kd [2]: 37.4 µM; Ki ([3]; read-out: LTD4 receptor, dissociation constant KD (converted)): 408 nM; pD'2 (antihistaminic action) [4]: 6.42
O=C1CS(=O)(=O)c2cc(OCc3cccc(OCc4nc5ccccc5s4)c3)ccc2N1 [Example 78, 7-[3-(2-Benzothiazolylmethoxy)benzyloxy]-3,4-dihydro-2H-1,4-benzothiazin-3-one 1,1-dioxide] | – | – | 12600 | – | 32 | 29 | –
O=C1CCCc2cc(OCc3cccc(OCc4ccc5ccccc5n4)c3)ccc21 [Example 89, 6-[3-(2-quinolinylmethoxy)benzyloxy]-1-tetralone] | 240 | 6 | 41.3 | – | – | – | pD'2 (antihistaminic action) [4]: 5.09
O=C1CSc2cc(N=Cc3ccc(OCc4ccc5ccccc5n4)cc3)ccc2N1 [Example 92, 7-[4-(2-quinolinylmethoxy)benzylidenamino]-3,4-dihydro-2H-1,4-benzothiazin-3-one] | – | – | – | – | – | – | Kd [2]: 0.12 µM; inhibition at 10 µM [3]: 0%
O=C1CSc2c(N=Cc3cccc(OCc4ccc5ccccc5n4)c3)cccc2N1 [Example 93, 8-[3-(2-quinolinylmethoxy)benzylidenamino]-3,4-dihydro-2H-1,4-benzothiazin-3-one] | – | 38 | 1510 | – | – | – | –
O=C1CSc2cc(NCc3cccc(OCc4ccc5ccccc5n4)c3)ccc2N1 [Example 94, 7-[3-(2-quinolinylmethoxy)benzylamino]-3,4-dihydro-2H-1,4-benzothiazin-3-one] | – | 37 | 315 | – | – | – | –
O=C1CSc2c(NCc3cccc(OCc4ccc5ccccc5n4)c3)cccc2N1 [Example 95, 8-[3-(2-quinolinylmethoxy)benzylamino]-3,4-dihydro-2H-1,4-benzothiazin-3-one] | – | 33 | 608 | – | – | – | –
CN1C(=O)CSc2c(NCc3cccc(OCc4ccc5ccccc5n4)c3)cccc21 [Example 97, 4-methyl-8-[3-(2-quinolinylmethoxy)benzylamino]-3,4-dihydro-2H-1,4-benzothiazin-3-one] | – | 7 | 681 | – | – | – | –
CCCc1c(OCC(O)COc2ccc3c(=O)cc(C(=O)O)oc3c2CCC)ccc(C(C)=O)c1O (centres unmarked) [FPL55712] | – | – | – | – | – | – | increase and aggravation of cortical edema [7]: significantly inhibited
